Assay results published in patent publication US20050233413A1, “Neuroprotective polypeptides and methods of use” (priority 2002, published 2005).
Read-outs that look alike come from different tables or passages of the source. Where no end group is shown, it is not given here.

Columns and labels:
[1] = system: F11 cells transfected with V642I-APP cDNA; experiment: F11 cell death by V642I-APP transfection (Trypan blue exclusion); format: cell-based; details: for potency of cytoprotection against V642I-APP relative to HN: times higher than that of HN
Excerpt: (§1) In one assay, transfection with V642I-APP causes cell death in F11 neuronal hybrid cells. In the other, treatment with Aβ peptides causes cell death in primary cultured cortical neurons.
(§2) F11 cells, the hybrid of a rat embryonic-day-13 primary cultured primary neuron and a mouse neuroblastoma cell, are one of the best models for primary cultured neurons as they carry representative characteristics of primary neurons, such as generation of action potentials without differentiation by NGF [22]. They have been used in various studies of is neuronal functions. Using these cells, the underlying mechanisms for cytotoxicity by V642I-APP have well been analyzed. Cytotoxicity by V642 mutants of APP has also been confirmed in multiple different systems. F11 cells were grown in Ham's F-12 (GibcoBRL, Gaithersburg, Md.) plus 18% fetal bovine serum (FBS; Hyclone, Logan, Utah) and antibiotics, as described previously. F11 cells (7×10^4 cell/well in a 6-well plate cultured in Ham's F-12 plus 18% FBS for 12-16 hr) were transfected with plasmids encoding FAD genes by lipofection [FAD cDNA 2 μg, LipofectAMINE 4 μl, PLUS reagent 8 μl (GibcoBRL)] in the absence of serum for 3 hr, and were incubated with Ham's F-12 plus 18% FBS for 2 hr. Then, culture media were changed to Ham's F-12 plus 10% FBS with or without HN peptides, and cells were cultured for an additional 67 hr. Seventy-two hr after transfection, cell mortality was measured by Trypan blue exclusion assay, performed as follows. Cells were suspended by pipetting gently, and 50 μl of 0.4% (finally 0.08%) Trypan blue solution (Sigma, St Louis, Mo.) was mixed with 200 μl of the cell suspension at room temperature. Stained cells were counted within 3 min after the mixture with Trypan blue solution.

[2] = system: Aβ and V642I-APP; format: cell-based; details: Table 5, marked **
Excerpt: as §2
(§3) The primary culture of mouse cortical neurons was performed in poly-L-lysine-coated 24-well plates or 96-well plates (Sumitomo Bakelite, Akita, Japan), in the absence of serum and the presence of N2 supplement, as described previously. The purity of neurons by this method was >98%. Prepared neurons (for neurons seeded in 96-well plates: 2.5×10^4 or 5×10^4 cells/well, 100 μl culture medium/well; for neurons seeded in 24-well plates: 1.25×10^5 cells/well, 250 μl culture medium/well) were preincubated with or without 10 μM (in case for the experiment with 10 μM HN) synthetic HN for 16 hr, and treated with 25 μM Aβ in the presence or absence of 10 μM HN for 72 hr, respectively. As primary neurons were vulnerable to transient dryness during medium exchange, we treated neurons with 25 μM Aβ as follows. First, a half volume (50 μl for neurons in 96-well plates; 125 μl for neurons in 24-well plates) of old medium was discarded. Then, the same volume (50 μl for neurons in 96-well plates; 125 μl for neurons in 24-well plates) of prewarned fresh medium containing 10 μM HN and 50 μM Aβ (Aβ was directly resolved) was added to the culture. The Aβ peptides used at 25 μM to induce neurotoxicity formed aggregation in the medium during the cell culture at 37° C. for 72 hr. as described. The WST-8 cell viability assay was performed, using Cell Counting Kit-8 (Wako Pure Chemical Industries, Osaka, Japan), as described previously.
(§4) Calcein assay was performed with Calcein-AM {3′,6′-di-(O-acetyl)-2′,7′-bis [N,N-bis(carboxymethyl)aminomethyl] fluorescein, tetraacetoxymethyl ester; Dojindo}, as described previously. These assays were simultaneously performed in the experiments with neurons seeded in 96-well plates, as follows. Seventy-two hours after Aβ treatment, cells were added with the mixture of 10 μl WST-8 solution and 1 μl of 600 μM Calcein-AM. After 2 hr incubation in a CO2 incubator at 37° C., WST-8 absorbance was measured as OD450. After exchanging the medium to PBS to lower the background, Calcein-specific fluorescence (ex=485 nm, em=535 nm) was observed by fluorescence microscopy or measured by a spectrofluorometer (Wallac1420 ARVOsx Multi Label Counter). […]

[3] = system: primary cultured neurons treated with 25 μM Aβ1-43; format: cell-based; details: for suppression of Aβ neurotoxicity in the presence of 100 μM EFLIVIKS / concentration of full neuroprotection against Aβ1-43: 25 μM Aβ1-43; for suppression of Aβ neurotoxicity in the presence of 100 μM EFLIVIKS: EF-HN and EF-HNG at 10 μM, WST-8 and Calcein assays
Experimental: as §1, §3
Calcein assay was performed with Calcein-AM {3′,6′-di-(O-acetyl)-2′,7′-bis [N,N-bis(carboxymethyl)aminomethyl] fluorescein, tetraacetoxymethyl ester; Dojindo}, as described previously. These assays were simultaneously performed in the experiments with neurons seeded in 96-well plates, as follows. Seventy-two hours after Aβ treatment, cells were added with the mixture of 10 μl WST-8 solution and 1 μl of 600 μM Calcein-AM. After 2 hr incubation in a CO2 incubator at 37° C., WST-8 absorbance was measured as OD450. After exchanging the medium to PBS to lower the background, Calcein-specific fluorescence (ex=485 nm, em=535 nm) was observed by fluorescence microscopy or measured by a spectrofluorometer (Wallac1420 ARVOsx Multi Label Counter). Most cell viability data using Calcein assay and WST-8 assay were obtained from neurons seeded at 5×10^4 cells/well in 96-well plates (high-density neurons) and confirmed by both assays with the cells seeded at 2.5×10^4 cells/well (low-density neurons).
Some experiments for Calcein assay were performed with neurons seeded in 24-well plates. […] In most experiments using primary neurons, four independent experiments were performed and the means? S. D. of the results were discussed.

[4] = Apparent stability of peptides in the culture medium; format: physicochemical; details: 72-hr incubation of 10 μM peptides in the cultured medium; data not shown
Excerpt: The Ser^7 residue plays a role different from that of Ser^14. S7A substitution nullified the action of HN, while Ser^7 racemation had no influence. […] Given the fact that EFLIVIKS or EFLIVKS is the established amino acid sequence to form a dimer and that EFLIVIKS alone had no cytoprotective action, it is most likely that Ser^7 is essential for HN to self-dimerize and that self-dimerization of HN is essential for the action of HN. […] This level of stability alterations could not account for the drastic potentiation of the rescue action by the fusion with EFLIVIKS.

[5] = system: Aβ and four FAD genes (V642I-APP, NL-APP, M146L-PS1, and N141I-PS2); format: cell-based
Excerpt: as §2, §3, §4

[6] = system: F11 cells transfected with V642I-APP, NL-APP, M146L-PS1 or N141I-PS2 cDNA; format: cell-based, rat/mouse hybrid
Excerpt: as §2

[7] = system: HN (self-dimerization); experiment: Dimerization experiment (Ni-bead precipitation of FLAG-tagged peptide by (His)6-tagged peptide); format: binding; details: Ni-bead precipitation, anti-FLAG immunoblot
Experimental: (§5) Synthetic (His)6-tagged HN derivative peptides (1 nmol) was incubated with 20 μl of Ni-NTA agarose (QIAGEN, Hilden, Germany) in a total volume of 0.5 ml of buffer A [20 mM Tris/HCl (pH8.0) and 1 mM DTT] for 1 hr at 4° C. and washed once with buffer B [20 mM Tris/HCl (pH 7.4), 1 mM DTT, and 150 mM NaCl]. Synthetic FLAG-tagged peptides (1 nmol) were mixed with the beads immobilizing (His)6-tagged peptides in a total volume of 0.5 ml of buffer B for 2 hr at 4° C. on a rotating shaker, and washed three times with buffer B. The washed beads were mixed with 20 μl of 2× sampling buffer [100 mM Tris/HCl (pH6.8), 200 mM DTT, 4% (w/v) SDS, 0.2% bromophenol blue, and 20% (v/v) glycerol] and boiled. The supernatant was submitted to Tris/Tricine SDS-PAGE, followed by immunoblotting analysis with 1/5000 anti-FLAG monoclonal antibody M2 (Sigma).

[8] = biological target: T1, HN (self-dimerization) (Homo sapiens, UniProt Q8IVG9, S7A); experiment: as above; format: binding; details: excess amounts of competitor
T1 construct: host or cells: chemically synthesised peptide (no expression host)
T1 sequence (Q8IVG9 with tags, fused parts or gaps S7A): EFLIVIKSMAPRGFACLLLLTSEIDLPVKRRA
Experimental: as §5

[9] = biological target: T2, HN (self-dimerization) (Homo sapiens, UniProt Q8IVG9); experiment: as above; format: binding; details: excess amounts of competitor
T2 construct: host or cells: chemically synthesised peptide (no expression host)
Experimental: as §5

[10] = system: Aβ and four FAD genes (V642I-APP, NL-APP, M146L-PS1, and N141I-PS2); details: cited from earlier work
[11] = system: V642I-APP, NL-APP, M146L-PS1, N141I-PS2 holoprotein expression in F11 cells; experiment: Immunoblot analysis of transfected FAD gene expression; format: cell-based, rat/mouse hybrid; details: F11 cells treated with peptide
Experimental: Immunoblot analysis was performed as described. For the analysis of transfected FAD gene expression, lysates (20 μg/lane) from cells transfected with each FAD gene (V642I-APP, NL-APP, M146L-PS1, N141I-PS2) were submitted to SDS-PAGE and were electrically blotted to a PVDF sheet. After blocking, the sheet was soaked with antibodies [for APP mutants: 5 μg/ml 22C11 (CHEMICON, Temecula, Calif.); for PS1 mutant: 1/2000 of anti-PS1 N-terminus antibody (CHEMICON) for PS2 mutant: 1/500 of anti-PS2 antibody (Cell Signaling Technology, Beverly, Mass.)] and then with HRP-labeled secondary antibodies. The antigenic bands were visualized by ECL (Amersham Pharmacia Biotech, Uppsala, Sweden).

Sequence: EFLIVIKSMAPRGFSCLLLLTSEIDLPVKRRA [EF-HN]
- potency of cytoprotection against V642I-APP relative to HN [1]: about 100 times
- Full protection (minimal concentration that exerted full cytoprotection) [2]: ˜100 nM
- suppression of Aβ neurotoxicity in the presence of 100 μM EFLIVIKS [3]: could fully suppress Aβ neurotoxicity
- potency of neuroprotection against Aβ relative to HN ([3]; times as high as / higher than authentic HN): about 100 times
- amount of peptide relative to the amount at time zero [4]: virtually unaltered

Sequence: MAPRGFACLLLLTSEIDLPVKRRA [S7A HN]
- concentration up to which no cytoprotection against V642I-APP was exerted ([1]; F11 cells): > 10 µM
- Full protection ([5]; Table 5, marked *): NE* (the corresponding peptide had no cytoprotective effect at 10 μM)
- IC50 ([5]; Table 5, marked *, read-out: IC50): > 10000 nM
- cytoprotective action against FAD genes (in words) ([6]; V642I-APP): no effect
- concentration up to which no neuroprotection against Aβ1-43 was exerted ([3]; 25 μM Aβ1-43, primary neurons): > 10 µM
- self-dimerization / complex formation (in words) [7]: little activity for self-dimerization
- effect of excess competitor on EF-(S7A)HN-FLAG precipitation by (His)6-EF-(S7A)HN [8]: not
- amount of peptide relative to the amount at time zero [4]: about ⅔

Sequence: EFLIVIKS [dimerization peptide, reference compound]
- Full protection [2]: NE** (the corresponding peptide had no cytoprotective effect at 10 μM)
- IC50 [2]: > 10000 nM
- concentration up to which no neuroprotection against Aβ1-43 was exerted ([3]; 25 μM Aβ1-43, primary neurons): > 100 µM
- effect of excess competitor on HN-FLAG precipitation by (His)6-HN [9]: could not interfere
- effect of excess competitor on EF-(S7A)HN-FLAG precipitation by (His)6-EF-(S7A)HN [8]: blocked

Sequence: EFLIVIKSMAPRGFSCLLLLTGEIDLPVKRRA [EF-HNG]
- IC50 [5]: 0.01 to 0.1 nM
- Full protection (minimal concentration that exerted full cytoprotection) ([5]; Table 5, marked *): ˜1 nM
- IC50 ([6]; each of V642I-APP, read-out: IC50 of suppression of neuronal cell death by FAD genes): ~0.01 nM
- concentration of full neuroprotection against Aβ1-43 [3]: 1 nM
- suppression of Aβ neurotoxicity in the presence of 100 μM EFLIVIKS [3]: could fully suppress Aβ neurotoxicity
- IC50 ([3]; both Calcein fluorescence and WST-8 absorbance assays, read-out: IC50 of cytoprotection against Aβ1-43): ~0.1 nM
- amount of peptide relative to the amount at time zero [4]: virtually unaltered

Sequence: PRGFSCLLLLTSEIDLP [HN17, Pro3-Pro19 region of HN]
- cytoprotection potency compared with authentic HN (in words) ([10]; as disclosed in [16]): as potent in cytoprotection as authentic HN

Sequence: EFLIVIKSMAPRGFACLLLLTSEIDLPVKRRA [EF-(S7A)HN]
- IC50 [1]: 1 nM
- concentration of full cytoprotection / complete suppression against V642I-APP ([1]; F11 cells): 100 nM
- potency of cytoprotection against V642I-APP relative to HN [1]: about 100 times
- Full protection (minimal concentration that exerted full cytoprotection) [2]: ˜100 nM
- IC50 [3]: ~10 nM
- concentration of full neuroprotection against Aβ1-43 [3]: 100 nM
- suppression of Aβ neurotoxicity in the presence of 100 μM EFLIVIKS [3]: could not suppress Aβ neurotoxicity at all
- self-dimerization / complex formation (in words) [7]: self-dimerizes through the EFLIVIKS region
- amount of peptide relative to the amount at time zero [4]: virtually unaltered

Sequence: MAPAGASCLLLLTGEIDLPVKRRA [AGA-HNG, reference compound]
- augmentation of the potency of HNG by Ala substitution at both Arg4 and Phe6 ([10]; previously reported [16]): 3-10 times
- concentration of full neuroprotection ([10]; previously reported [16]): 100 to 300 pM
- concentration of full cytoprotection [5]: 100 to 300 pM
- Full protection (minimal concentration that exerted full cytoprotection) ([5]; Table 5, marked *): 100 to 300 pM
- CMV-promoter-driven expression of V642I-APP, NL-APP, M146L-PS1, or N141I-PS2 holoprotein [11]: little or only marginal alteration

Sequence: YMAPRGFSCLLLLTGEIDLPVKKKK [HNG-KKK, HNG with its C-terminal KRRA substituted to KKKK]
- Full protection [2]: NE** (the corresponding peptide had no cytoprotective effect at 10 μM)
- IC50 [2]: > 10000 nM
- concentration up to which no neuroprotection against Aβ1-43 was exerted ([3]; 25 μM Aβ1-43, primary neurons): > 10 µM
- neuroprotective action against Aβ1-43 (in words) ([3]; 25 μM Aβ1-43, primary neurons): lost the neuroprotective action
- effect of excess competitor on HN-FLAG precipitation by (His)6-HN [9]: no effect
- self-dimerization / complex formation (in words) [7]: little activity to form a complex with HN
